Data taken from PubChem BioAssay AID1963867 (Molecular Pharmacology Branch, DTP, NCI, 2024).

Tested on: KRAS-mutant PDC tumor spheroid with HUVEC/MSC, viability
Assay: Anticancer human tumor 327498-153-R-J2-PDC patient-derived uterine carcinosarcoma cell line growth inhibition [KRAS2]
Conditions: for IC50: curve of first compound; for viability, T/C: stronger effect = lower value
Excerpt: Multicellular complex tumor spheroid response to RAS pathway inhibitors in combination with a targeted agents in patient-derived cell lines with oncogenic KRAS variants from multiple cancer types
A high-throughput screen of multi-cell type tumor spheroids was designed to identify active combinations of targeted small molecules and KRAS pathway inhibitors. Complex spheroids include a stromal component modeled by human endothelial cells (HUVEC) and fibroblasts modeled by human mesenchymal stem cells (MSCs). The concentration ranges selected for each drug and investigational agent were based upon clinically achievable concentrations if the clinical Cmax of the agent was known.
Compounds. The drugs and investigational agents: BI-3406 (NSC825286), BAY-293 (NSC824723), batoprotafib (TNO155; NSC825523), sotorasib (AMG 510; NSC818433), MRTX1257 (NSC819558), elimusertib (BAY 1895344; NSC800525), molibresib (GSK525762; NSC774829), temuterkib (LY3214996; NSC803410), venetoclax (NSC766270), alisertib (NSC759677), olaparib (NSC753686), talazoparib (NSC767125), erdafitinib (NSC781556), ipatasertib (NSC767898), cabozantinib (NSC761068), nintedanib (NSC756659), abemaciclib (NSC768073), docetaxel (NSC628503), trametinib (NSC758246), and sapanisertib (NSC764658) were obtained from the National Cancer Institute (NCI) Developmental Therapeutics Program Chemical Repository. The FDA-approved anticancer drug set is available from the Developmental Therapeutics Program. […] The stock solutions were prepared in dimethyl sulfoxide (DMSO, Sigma-Aldrich, St. Louis, MO, cat. D2650) at 800-fold the tested concentration and stored at -70 degrees C prior to their use. All drugs and investigational agents were tested over a range starting from a high concentration at or near the clinical Cmax and decreasing in half-log increments. If the clinical Cmax for an agent had not been determined, the highest concentration tested was 10 microM.
Cell Culture. All cells were maintained in an incubator at 37 degrees C and 5% CO2 with 95% humidity. The PDC lines were cultured according to standard operating procedures established by the NCI PDMR (https://pdmr.cancer.gov/sops/default.htm). Briefly, all PDCs were thawed and cultured in Matrigel-coated flasks prepared with a working solution of 1X Ham's F-12 nutrient mix, without supplementation (Invitrogen, Waltham, MA, cat. 11765054), 100 U/mL penicillin-streptomycin (Invitrogen, cat. 15140122), and 2.5% Matrigel (Corning Inc., Corning, NY, cat. 354248) for the first three passages. All PDCs were cultured in complete DMEM/F-12 media containing advanced DMEM/F-12 (Invitrogen, cat. 12634028), 4.9% defined fetal bovine serum, heat inactivated (HyClone Laboratories Inc., Logan, UT, cat. SH30070.03HI), 389 ng/mL hydrocortisone (Sigma-Aldrich, cat. H4001), 9.7 ng/mL human EGF recombinant protein (Invitrogen, cat. PHG0313), 23.4 microg/mL adenine (Sigma-Aldrich, cat. A2786), 97.3 U/mL penicillin-streptomycin (Invitrogen, cat. 15140122), 1.9 mM L-glutamine (Invitrogen, cat. 25030081), and 9.7 microM Y-27632 dihydrochloride (Tocris Bioscience, Bristol, United Kingdom, cat. 1254). The PDCs were cultured in complete DMEM/F12 media without 9.7 microM Y-27632 dihydrochloride for at least two passages prior to the screen. The established cell line HOP-62 was cultured in RPMI 1640 medium, HEPES (Invitrogen, cat. 22400105) with 10% defined fetal bovine serum (HyClone Laboratories Inc., cat. SH30070.03) and 2 mM L-glutamine (Invitrogen, cat. 25030081). The pooled donor HUVEC were cultured in endothelial cell growth medium 2 (PromoCell, Heidelberg, Germany, cat. C-22011) and the hMSC were cultured in mesenchymal stem cell growth medium 2 (PromoCell, cat. C-28009). For all experiments, HUVEC and hMSC were used at passages </=5, while the malignant cell lines were used at passages </=15. […]
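Further: spheroids exposed to agents for seven days before reading.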
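Wherever viability, T/C is given: 100% = DMSO vehicle wells so lower means fewer viable cells.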

SMILES: CC(C)n1nc(-c2ccc3oc(N)nc3c2)c2c(N)ncnc21 + C=CC(=O)N1CCN(c2nc(=O)n(-c3c(C)ccnc3C(C)C)c3nc(-c4c(O)cccc4F)c(F)cc23)C(C)C1
- IC50 (second compound 0.1 µM): 576 pM
- IC50 (second compound 0.316 µM): < 316 pM
- IC50 (second compound 1 µM): < 316 pM
- IC50 (second compound 3.16 µM): < 316 pM
- IC50 (second compound 10 µM): < 316 pM
- viability, T/C (second compound 0.1 µM, first compound 0.000316 µM): 57.6%
- viability, T/C (second compound 0.1 µM, first compound 0.001 µM): 40.7%
- viability, T/C (second compound 0.1 µM, first compound 0.00316 µM): 34.6%
- viability, T/C (second compound 0.1 µM, first compound 0.01 µM): 17.6%
- viability, T/C (second compound 0.1 µM, first compound 0.0316 µM): 8.67%
- viability, T/C (second compound 0.1 µM, first compound 0.1 µM): 5.6%
- viability, T/C (second compound 0.316 µM, first compound 0.000316 µM): 45.4%
- viability, T/C (second compound 0.316 µM, first compound 0.001 µM): 41.2%
- viability, T/C (second compound 0.316 µM, first compound 0.00316 µM): 26.1%
- viability, T/C (second compound 0.316 µM, first compound 0.01 µM): 14.3%
- viability, T/C (second compound 0.316 µM, first compound 0.0316 µM): 9.71%
- viability, T/C (second compound 0.316 µM, first compound 0.1 µM): 5.39%
- viability, T/C (second compound 1 µM, first compound 0.000316 µM): 49.5%
- viability, T/C (second compound 1 µM, first compound 0.001 µM): 38%
- viability, T/C (second compound 1 µM, first compound 0.00316 µM): 23.5%
- viability, T/C (second compound 1 µM, first compound 0.01 µM): 14.4%
- viability, T/C (second compound 1 µM, first compound 0.0316 µM): 7.05%
- viability, T/C (second compound 1 µM, first compound 0.1 µM): 5.38%
- viability, T/C (second compound 3.16 µM, first compound 0.000316 µM): 42.1%
- viability, T/C (second compound 3.16 µM, first compound 0.001 µM): 33.2%
- viability, T/C (second compound 3.16 µM, first compound 0.00316 µM): 21.5%
- viability, T/C (second compound 3.16 µM, first compound 0.01 µM): 13.9%
- viability, T/C (second compound 3.16 µM, first compound 0.0316 µM): 6.92%
- viability, T/C (second compound 3.16 µM, first compound 0.1 µM): 6.19%
- viability, T/C (second compound 10 µM, first compound 0.000316 µM): 31.1%
- viability, T/C (second compound 10 µM, first compound 0.001 µM): 25.3%
- viability, T/C (second compound 10 µM, first compound 0.00316 µM): 19.1%
- viability, T/C (second compound 10 µM, first compound 0.01 µM): 8.99%
- viability, T/C (second compound 10 µM, first compound 0.0316 µM): 5.88%
- viability, T/C (second compound 10 µM, first compound 0.1 µM): 5.69%
